Laboratory results taken from paper PMC4157028, “HPTLC Analysis, Antioxidant and Antigout Activity of Indian Plants” (Iranian Journal of Pharmaceutical Research : IJPR, 2014).
In brackets after ≈: the same amount, converted by molar mass.

Biological target: T1, cow milk xanthine oxidase
T1 construct: gene XDH; commercial enzyme from Himedia Laboratories; abstract says cow milk, reagent list says source: microorganisms
Test: spectrophotometric uric acid formation at […] nm
Type: biochemical
Conditions: xanthine substrate (150 mM stock as printed, 2 mL added), phosphate buffer pH 7.5, 25 °C, 15 min preincubation, 30 min reaction

O=c1[nH]cnc2[nH]ncc12 [Allopurinol]
IC50: 6.75 µg/mL (≈ 49.6 µM)
